In paper PMC7579906, “Discovery of a dual inhibitor of NQO1 and GSTP1 for treating glioblastoma” (Journal of Hematology & Oncology, 2020):

Tests used:
U87MG/EGFRvIII cells = experiment: Cell proliferation (MTT) assay, U87MG/EGFRvIII; type: cell-based, human
Experimental: The human glioblastoma cell line U87MG was stably transfected with vector control, pLHCX-EGFRvIII, pGFP-NQO1 and pRS-GSTP1, which were supplemented with various antibiotics. For EGFRvIII, 150 μg/mL of hygromycin was used; for pGFP-NQO1 and pRS-GSTP1, 0.7 μg/mL of puromycin was employed. The cells were supplemented with 10% fetal bovine serum (Hyclone, USA), penicillin (100 U/ml) and streptomycin (100 U/ml) (ABAM Life Technologies, USA) in a humidified incubator with 5% CO2 at 37 °C.
In vitro assessment was implemented for cell proliferation using the 3-(4, 5- dimethylthiazol- 2-yl)-2,5-diphenyltetrazolium bromide (MTT) assay. After different treatments with specific time periods, 10 μL of MTT (5 mg/mL in PBS, Sigma, USA) was added to each well and the plates were incubated for 3 h at 37 °C. The resulting formazan product was dissolved with DMSO. The absorbance at a wavelength of 490 nm was recorded using a microplate reader (BioTek Instruments Inc., USA).

GSTP1 Y108A = biological target: T1, GSTP1 Y108A (Homo sapiens, UniProt P09211, I105V/Y109A); experiment: GSTP1 kinetic assay, Y108A mutant; type: biochemical; settings: mean ± SEM (n=3)
T1 construct: hexahistidine tag followed by a thrombin site (N); made in house; host or cells: Escherichia coli BL21 (DE3)
T1 sequence (P09211 whole entry I105V/Y109A): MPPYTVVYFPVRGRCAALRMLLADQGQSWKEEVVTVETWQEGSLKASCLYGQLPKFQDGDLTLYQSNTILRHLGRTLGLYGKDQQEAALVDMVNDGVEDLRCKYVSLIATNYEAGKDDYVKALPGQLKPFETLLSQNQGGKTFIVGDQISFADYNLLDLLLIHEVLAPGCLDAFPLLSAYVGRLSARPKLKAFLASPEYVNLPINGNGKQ
Experimental: (§1) The enzymatic activity of GSTP1 and its mutations was measured through the increased absorbance at 340 nm, which derived from the conjugation of reduced glutathione (GSH) and 1-chloro-2,4-dinitrobenzene (CDNB). The conjugation was initiated by adding CDNB to the mixture of GSH and GSTP1 or its mutants, and OD was immediately and continually measured for 20 min at 25 °C. The final assay mixture included 1 mM CDNB, 1 mM GSH in the buffer of 100 mM potassium phosphate pH 6.5, 1 mM EDTA. The inhibitory potency of MNPC versus GSTP1 or mutants was determined by calculating the residual activity after incubated with MNPC for 30 min at room temperature. Parallel control was run to monitor spontaneous conjugation of GSH and CDNB in the absence of the enzyme, and absorbance change of the control was used for the correction of an enzymatic reaction. The inhibition rate in triplicate was calculated by GraphPad Prism software (GraphPad, San Diego, CA) to give IC50 using nonlinear regression analysis.

GSTP1 WT = biological target: T2, GSTP1 WT (Homo sapiens, UniProt P09211, I105V); experiment: Microscale thermophoresis (MST), GSTP1 wild type; type: binding; settings: mean ± SEM, three experiments
T2 construct: hexahistidine tag followed by a thrombin site (N); made in house; host or cells: Escherichia coli BL21 (DE3)
T2 sequence (P09211 whole entry I105V): as the sequence (P09211 whole entry I105V/Y109A) above, with A109Y counted along it
Experimental: Since Tris buffer is incompatible with MST labeling, GSTP1 and its mutants were performed an initial buffer exchange to 20 mM HEPES pH 7.6, 200 mM NaCl before labeling. Then, the proteins were fluorescently labeled using Monolith Protein Labeling Kit RED-NHS 2nd generation dye (NanoTemper Technology, Munich, Germany) according to the protocol. MNPC was prepared with a series of concentrations (varying from 2 mM to 11 nM) at a dilution ratio of 1: 2. Six microliters of the fluorescence-labeled GSTP1 or mutations was mixed with 6 μl of variable concentration of MNPC and incubated for 10 min at room temperature. The mixtures were loaded into standard glass capillaries and analyzed on Monolith NT.115 at 25 °C, with 40% LED power and 100% Laser power in triplicate. Data were analyzed by NTAnalysis software to calculate the Kd values.

GSTP1 F8A/Y108A = biological target: T3, GSTP1 F8A/Y108A (Homo sapiens, UniProt P09211, F9A/I105V/Y109A); experiment: GSTP1 kinetic assay, F8A/Y108A mutant; type: biochemical; settings: mean ± SEM (n=3)
T3 construct: hexahistidine tag followed by a thrombin site (N); made in house; host or cells: Escherichia coli BL21 (DE3)
T3 sequence (P09211 whole entry F9A/I105V/Y109A): as the sequence (P09211 whole entry I105V/Y109A) above, with F9A counted along it
Experimental: as §1

For `Cc1onc(-c2ccccc2)c1C(=O)Nc1ncc([N+](=O)[O-])s1` [MNPC, 5-methyl-N-(5-nitro-thiazol-2-yl)-3-phenylisoxazole-4-carboxamide], the Growth of cultures (U87MG/EGFRvIII cells; 0, 0.5, 1, 2 and 5 μM for 5 days, MTT) was “dose-dependently inhibited the growth”, the IC50 (U87MG/EGFRvIII cells; Homo sapiens, U-87 MG, inhibition of cell proliferation/viability, MNPC treated 72 h) was 1.32 µM and the “Cell number in NQO1/GSTP1-depleted cells” value (U87MG/EGFRvIII cells; U87MG/EGFRvIII with si-NQO1, si-GSTP1 or both, MNPC 1 μM, 5 days) was “no effect on cell number”. For the same compound, the IC50 (GSTP1 Y108A) was 25.7 ± 1.41 µM, the Kd (GSTP1 WT) was 17.6 ± 0.8 µM and the IC50 (GSTP1 F8A/Y108A) was 4.01 ± 0.6 µM.
